According to ChEMBL document CHEMBL4699602, “Stapled and Xenopus Glucagon-Like Peptide 1 (GLP-1)-Based Dual GLP-1/Gastrin Receptor Agonists with Improved Metabolic Benefits in Rodent Models of Obesity and Diabetes” (J Med Chem, 2020):
Where a SMILES comes first, the peptide text is derived from it. [ ]: non-standard residue; d: D form. ξ: configuration not given here. αMeH = C[C@](N)(Cc1c[nH]cn1)C(=O)O; Thr(3ξ) = CC(O)[C@H](N)C(=O)O; Aib = CC(C)(N)C(=O)O

Key:
[1] = molecular target: T1, Glucagon-like peptide 1 receptor (Homo sapiens, UniProt P43220); test: Agonist activity at human GLP-1R expressed in HEK293 cells assessed as stimulation of cAMP accumulation incubated for 20 mins in presence of 0% HSA; format: functional, cell-based
[2] = molecular target: T1, Glucagon-like peptide 1 receptor; test: Agonist activity at human GLP-1R expressed in HEK293 cells assessed as stimulation of cAMP accumulation incubated for 20 mins in presence of 4.4% HSA; format: functional, cell-based
[3] = molecular target: T1, Glucagon-like peptide 1 receptor; test: Ratio of EC50 for agonist activity at human GLP-1R expressed in HEK293 cells in presence of 4.4% HSA to EC50 for agonist activity at human GLP-1R expressed in HEK293 cells in presence of 0% HSA; format: cell-based
[4] = molecular target: T1, Glucagon-like peptide 1 receptor; test: Agonist activity at human GLP-1R expressed in HEK293 cells assessed as stimulation of cAMP accumulation incubated for 20 mins; format: functional, cell-based

T1 sequence (P43220 whole entry): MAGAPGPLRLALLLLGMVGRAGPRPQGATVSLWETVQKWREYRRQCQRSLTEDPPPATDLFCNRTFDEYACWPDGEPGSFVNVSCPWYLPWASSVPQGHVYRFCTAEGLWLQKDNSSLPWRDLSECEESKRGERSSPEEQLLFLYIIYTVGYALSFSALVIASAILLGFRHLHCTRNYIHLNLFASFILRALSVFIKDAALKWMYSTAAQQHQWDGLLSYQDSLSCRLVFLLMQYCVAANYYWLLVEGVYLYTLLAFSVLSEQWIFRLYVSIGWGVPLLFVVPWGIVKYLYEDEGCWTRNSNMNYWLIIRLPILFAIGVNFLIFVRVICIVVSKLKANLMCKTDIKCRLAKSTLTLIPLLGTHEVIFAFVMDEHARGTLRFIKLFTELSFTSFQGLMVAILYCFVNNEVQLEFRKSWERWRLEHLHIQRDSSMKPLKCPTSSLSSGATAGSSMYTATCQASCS

Question: For `CC[C@H](C)[C@H](NC(=O)[C@H](CC(C)C)NC(=O)[C@H](Cc1c[nH]c2ccccc12)NC(=O)[C@H](CCC(=O)O)NC(=O)[C@@H](NC(=O)[C@H](Cc1ccccc1)NC(=O)[C@@H]1CSC2CC(=O)N(CCC(=O)NC(C(=O)NCCCCCCNC(=O)COCCOCCNC(=O)CCC(NC(=O)CCCCCCCCCCCCCCCCC(=O)O)C(=O)O)CCCCNC(=O)CCN3C(=O)CC(SC[C@H](NC(=O)[C@H](Cc4ccc(O)cc4)NC(=O)[C@H](CCC(=O)O)NC(=O)[C@@H](NC(=O)[C@@H](NC(=O)[C@H](CC(=O)O)NC(=O)[C@H](CC(N)=O)NC(=O)[C@@H](NC(=O)[C@H](Cc4ccc(O)cc4)NC(=O)[C@@H](NC(=O)CNC(=O)[C@H](CCC(=O)O)NC(=O)C(C)(C)NC(=O)[C@@H](N)Cc4c[nH]cn4)[C@@H](C)O)[C@@H](C)O)C(C)C)[C@@H](C)O)C(=O)N[C@@H](CCC(=O)O)C(=O)N[C@@H](CCC(=O)O)C(=O)N[C@@H](CCC(=O)O)C(=O)N[C@@H](C)C(=O)N[C@@H](C)C(=O)N[C@@H](CCCCN)C(=O)N1)C3=O)C2=O)[C@@H](C)CC)C(=O)N[C@@H](CCCCN)C(=O)NCC(=O)N[C@@H](CCCCN)C(=O)N1CCC[C@H]1C(=O)N[C@@H](CO)C(=O)N[C@@H](CO)C(=O)NCC(=O)N[C@@H](C)C(=O)N1CCC[C@H]1C(=O)N1CCC[C@H]1C(=O)N1CCC[C@H]1C(=O)N[C@@H](CO)C(N)=O` (stereo not given in full) (HELM PEPTIDE1{H.[Aib].E.G.T.Y.T.N.D.V.T.E.Y.C.E.E.E.A.A.K.C.F.I.E.W.L.I.K.G.K.P.S.S.G.A.P.P.P.S.[am]}|CHEM1{[O=C(O)CCCCCCCCCCCCCCCCC(=O)NC(CCC(=O)NCCOCCOCC(=O)NCCCCCCNC(=O)C(CCCCNC(=O)CCN1C(=O)CC([*:1])C1=O)NC(=O)CCN1C(=O)CC([*:2])C1=O)C(=O)O]}$PEPTIDE1,CHEM1,14:R3-1:R1|PEPTIDE1,CHEM1,21:R3-1:R2$$$V2.0), which EC50 [1] is on record?
Answer: 0.1 nM

Question: And the EC50 [2]?
Answer: 5.9 nM

Question: What about the Ratio EC50 [3] of the same compound?
Answer: 59

Question: How did the EC50 [1] turn out when `CC[C@H](C)[C@H](NC(=O)[C@H](CC(C)C)NC(=O)[C@H](Cc1c[nH]c2ccccc12)NC(=O)[C@H](CCC(=O)O)NC(=O)[C@@H](NC(=O)[C@H](Cc1ccccc1)NC(=O)[C@@H]1CSC2CC(=O)N(CCC(=O)NC(C(=O)NCCCCCCNC(=O)COCCOCCNC(=O)CCCCCCCCCCCCCCCCC(=O)O)CCCCNC(=O)CCN3C(=O)CC(SC[C@H](NC(=O)[C@H](Cc4ccc(O)cc4)NC(=O)[C@H](CCC(=O)O)NC(=O)[C@@H](NC(=O)[C@@H](NC(=O)[C@H](CC(=O)O)NC(=O)[C@H](CC(N)=O)NC(=O)[C@@H](NC(=O)[C@H](Cc4ccc(O)cc4)NC(=O)[C@@H](NC(=O)CNC(=O)[C@H](CCC(=O)O)NC(=O)C(C)(C)NC(=O)[C@@H](N)Cc4c[nH]cn4)[C@@H](C)O)[C@@H](C)O)C(C)C)[C@@H](C)O)C(=O)N[C@@H](CCC(=O)O)C(=O)N[C@@H](CCC(=O)O)C(=O)N[C@@H](CCC(=O)O)C(=O)N[C@@H](C)C(=O)N[C@@H](C)C(=O)N[C@@H](CCCCN)C(=O)N1)C3=O)C2=O)[C@@H](C)CC)C(=O)N[C@@H](CCCCN)C(=O)NCC(=O)N[C@@H](CCCCN)C(=O)N1CCC[C@H]1C(=O)N[C@@H](CO)C(=O)N[C@@H](CO)C(=O)NCC(=O)N[C@@H](C)C(=O)N1CCC[C@H]1C(=O)N1CCC[C@H]1C(=O)N1CCC[C@H]1C(=O)N[C@@H](CO)C(N)=O` (stereo not given in full) (HELM PEPTIDE1{H.[Aib].E.G.T.Y.T.N.D.V.T.E.Y.C.E.E.E.A.A.K.C.F.I.E.W.L.I.K.G.K.P.S.S.G.A.P.P.P.S.[am]}|CHEM1{[O=C(O)CCCCCCCCCCCCCCCCC(=O)NCCOCCOCC(=O)NCCCCCCNC(=O)C(CCCCNC(=O)CCN1C(=O)CC([*:1])C1=O)NC(=O)CCN1C(=O)CC([*:2])C1=O]}$PEPTIDE1,CHEM1,14:R3-1:R1|PEPTIDE1,CHEM1,21:R3-1:R2$$$V2.0) was run?
Answer: 0.11 nM

Question: What about the EC50 [2] of the same compound?
Answer: 1.3 nM

Question: What about the Ratio EC50 [3] of the same compound?
Answer: 11.8

Question: For `CC[C@H](C)[C@H](NC(=O)[C@H](CS)NC(=O)[C@H](Cc1c[nH]c2ccccc12)NC(=O)[C@H](CCC(=O)O)NC(=O)[C@@H](NC(=O)[C@H](Cc1ccccc1)NC(=O)[C@H](CCC(=O)O)NC(=O)[C@H](CCCCN)NC(=O)[C@H](CS)NC(=O)[C@H](C)NC(=O)[C@H](CCC(=O)O)NC(=O)[C@H](CCC(=O)O)NC(=O)[C@H](CCC(=O)O)NC(=O)[C@H](CC(C)C)NC(=O)[C@H](Cc1ccc(O)cc1)NC(=O)[C@H](CCC(=O)O)NC(=O)[C@@H](NC(=O)[C@@H](NC(=O)[C@H](CC(=O)O)NC(=O)[C@H](CC(N)=O)NC(=O)[C@@H](NC(=O)[C@H](Cc1ccc(O)cc1)NC(=O)[C@@H](NC(=O)CNC(=O)[C@H](CCC(=O)O)NC(=O)C(C)(C)NC(=O)[C@@H](N)Cc1c[nH]cn1)[C@@H](C)O)[C@@H](C)O)C(C)C)[C@@H](C)O)[C@@H](C)CC)C(=O)N[C@@H](CCCCN)C(=O)NCC(=O)N[C@@H](CCCCN)C(N)=O` (HELM PEPTIDE1{H.[Aib].E.G.T.Y.T.N.D.V.T.E.Y.L.E.E.E.A.C.K.E.F.I.E.W.C.I.K.G.K.[am]}$$$$V2.0), which EC50 [4] is on record?
Answer: 0.68 nM

Question: `CC[C@H](C)[C@H](NC(=O)[C@H](CC(C)C)NC(=O)[C@H](CS)NC(=O)[C@H](CCC(=O)O)NC(=O)[C@@H](NC(=O)[C@H](Cc1ccccc1)NC(=O)[C@H](CCC(=O)O)NC(=O)[C@H](CCCCN)NC(=O)[C@H](C)NC(=O)[C@H](CS)NC(=O)[C@H](CCC(=O)O)NC(=O)[C@H](CCC(=O)O)NC(=O)[C@H](CCC(=O)O)NC(=O)[C@H](CC(C)C)NC(=O)[C@H](Cc1ccc(O)cc1)NC(=O)[C@H](CCC(=O)O)NC(=O)[C@@H](NC(=O)[C@@H](NC(=O)[C@H](CC(=O)O)NC(=O)[C@H](CC(N)=O)NC(=O)[C@@H](NC(=O)[C@H](Cc1ccc(O)cc1)NC(=O)[C@@H](NC(=O)CNC(=O)[C@H](CCC(=O)O)NC(=O)C(C)(C)NC(=O)[C@@H](N)Cc1c[nH]cn1)[C@@H](C)O)[C@@H](C)O)C(C)C)[C@@H](C)O)[C@@H](C)CC)C(=O)N[C@@H](CCCCN)C(=O)NCC(=O)N[C@@H](CCCCN)C(=O)N1CCC[C@H]1C(=O)N[C@@H](CO)C(=O)N[C@@H](CO)C(=O)NCC(=O)N[C@@H](C)C(=O)N1CCC[C@H]1C(=O)N1CCC[C@H]1C(=O)N1CCC[C@H]1C(=O)N[C@@H](CO)C(N)=O` (HELM PEPTIDE1{H.[Aib].E.G.T.Y.T.N.D.V.T.E.Y.L.E.E.E.C.A.K.E.F.I.E.C.L.I.K.G.K.P.S.S.G.A.P.P.P.S.[am]}$$$$V2.0) was tested. Which EC50 [4] did it give?
Answer: 0.13 nM

Question: With `CC[C@H](C)[C@H](NC(=O)[C@H](CC(C)C)NC(=O)[C@H](CS)NC(=O)[C@H](CCC(=O)O)NC(=O)[C@@H](NC(=O)[C@H](Cc1ccccc1)NC(=O)[C@H](CCC(=O)O)NC(=O)[C@H](CCCCN)NC(=O)[C@H](C)NC(=O)[C@H](CS)NC(=O)[C@H](CCC(=O)O)NC(=O)[C@H](CCC(=O)O)NC(=O)[C@H](CCC(=O)O)NC(=O)[C@H](CC(C)C)NC(=O)[C@H](Cc1ccc(O)cc1)NC(=O)[C@H](CCC(=O)O)NC(=O)[C@@H](NC(=O)[C@@H](NC(=O)[C@H](CC(=O)O)NC(=O)[C@H](CC(N)=O)NC(=O)[C@@H](NC(=O)[C@H](Cc1ccc(O)cc1)NC(=O)[C@@H](NC(=O)CNC(=O)[C@H](CCC(=O)O)NC(=O)C(C)(C)NC(=O)[C@@H](N)Cc1c[nH]cn1)[C@@H](C)O)[C@@H](C)O)C(C)C)[C@@H](C)O)[C@@H](C)CC)C(=O)N[C@@H](CCCCN)C(=O)NCC(=O)N[C@@H](CCCCN)C(N)=O` (HELM PEPTIDE1{H.[Aib].E.G.T.Y.T.N.D.V.T.E.Y.L.E.E.E.C.A.K.E.F.I.E.C.L.I.K.G.K.[am]}$$$$V2.0) as the compound, how does the EC50 [4] read?
Answer: 0.33 nM

Question: For “H-H[Aib]EGTYTNDVCEYLEEECAKEFIEWLIKGKPSSGAPPSKKKKKK-NH2 (cysteines drawn unpaired)”, which EC50 [4] is on record?
Answer: 0.13 nM

Question: With “H-H[Aib]EGTYTNDVTECLEEEAACEFIEWLIKGKPSSGAPPSKKKKKK-NH2 (cysteines drawn unpaired)” as the compound, how does the EC50 [4] read?
Answer: 0.16 nM

Question: Which EC50 [4] does the source give for “H-H[Aib]EGTYTNDVTEYLCEEAAKECIEWLIKGKPSSGAPPSKKKKKK-NH2 (cysteines drawn unpaired)” here?
Answer: 0.17 nM

Question: For “H-H[Aib]EGTYTNDVTEYLECEAAKEFCEWLIKGKPSSGAPPSKKKKKK-NH2 (cysteines drawn unpaired)”, which EC50 [4] is on record?
Answer: 0.12 nM

Question: How did the EC50 [4] turn out when “H-H[Aib]EGTYTNDVTEYLEEEAACEFIEWLCKGKPSSGAPPSKKKKKK-NH2 (cysteines drawn unpaired)” was run?
Answer: 0.23 nM

Question: How did the EC50 [4] turn out when “H-H[Aib]EGTYTNDVTEYLEEEAAKECIEWLIKCKPSSGAPPSKKKKKK-NH2 (cysteines drawn unpaired)” was run?
Answer: 0.13 nM

Question: Which EC50 [4] does the source give for “H-H[Aib]EGTYTNDVTEYLEEEACKEFIEWCIKGKPSSGAPPSKKKKKK-NH2 (cysteines drawn unpaired)” here?
Answer: 0.15 nM

Question: With “H-H[Aib]EGTYTNDVTEYLEEECAKEFIECLIKGKPSSGAPPSKKKKKK-NH2 (cysteines drawn unpaired)” as the compound, how does the EC50 [4] read?
Answer: 0.1 nM

Question: With “H-H[Aib]EGTY[Thr(3ξ)]NDV[Thr(3ξ)]EYLEECAAKEFICWLIKGKPSSGAPPSKKKKKK-NH2 (cysteines drawn unpaired)” as the compound, how does the EC50 [4] read?
Answer: 0.073 nM

Question: How did the EC50 [4] turn out when “H-H[Aib]EG[Thr(3ξ)]YTNDVTEYLEEEAAKEFCEWLIKGCPSSGAPPSKKKKKK-NH2 (cysteines drawn unpaired)” was run?
Answer: 0.23 nM

Question: Which EC50 [4] does the source give for “H-[αMeH]AEGTYTNDVTCYLEEEACKEFIEWLIKGKPSSGAPPSKKKKKK-NH2 (cysteines drawn unpaired)” here?
Answer: 0.11 nM
